Test results reported in patent publication US9555038B2, “Heterocycle-substituted tetracyclic compounds and methods of use thereof for the treatment of viral diseases” (Merck Sharp & Dohme Corp., priority 2013, dated 2017).
Where two headings read alike, the source gives them in different places.

Experiments:
HCV replicon 1A = assay: Cell-based HCV Replicon Assay A, replicon 1A
Summary of the method: (§1)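 2000 cells/well; 10 serial dilutions, top concentration 333.3 nM to 1.667 nM; 0.5% DMSO, 5% FBS; 3 days; lysis; multiplex TaqMan RT-PCR (NS5B/Neo plus cyclophilin), RNA from linear Ct standard curves.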

HCV replicon 1AY93H = assay: Cell-based HCV Replicon Assay A, replicon 1AY93H
Summary of the method: as §1

HCV replicon 1AQ30D = assay: Cell-based HCV Replicon Assay B, replicon 1AQ30D
Procedure: In an alternate assay (“Replicon Assay B”), 1000 cells were seeded per well in a 384-well collagen coated black plate from Greiner bio-one (Cat #781946) in 5% FBS. Inhibitors of this invention were added at 24 h post-seeding, and the plates were incubated for 3 days. Cells were subsequently lysed with Qiagen lysis buffer (Cat #1062731) to extract the RNA. HCV replicon RNA level was measured by real-time PCR using the RNA-to-CT kit from Applied Biosystem (Cat #4392656) and genotype-specific primers and probes. The amplicon was located within NS5B. The sequence of the PCR primers are as follows: 5B.2F, ATGGACAGGCGCCCTGA (SEQ. ID NO. 1); 5B.2R, […] (SEQ. ID NO. 2); the probe sequence was FAM-labeled CACGCCATGCGCTGCGG (SEQ. ID NO. 3). To detect genotype 1A the primer 1A F, TGCGGAACCGGTGAGTACA and 1A R, […] were used; the probe sequence was FAM-[…].
The real-time RT-PCR reactions were run on ABI PRISM 7900HT or Viia7 Sequence Detection System using the following program: 48° C. for 30 minutes, 95° C. for 10 minutes, 40 cycles of 95° C. for 15 sec, 60° C. for 1 minutes. The 50% effective concentration (EC50) was the drug concentration necessary to achieve an increase in the cycle threshold (CT) of 1 over the projected baseline CT.
Data was obtained for various compounds of the present invention using the methods described in the Example above, and is presented in the table immediately below. Data for replicons 1A, 1AY93H and 2B were obtained using Replicon Assay A and data for replicons 1AQ30D and 1B were obtained using Replicon Assay B.

HCV replicon 1B = assay: Cell-based HCV Replicon Assay B, replicon 1B
Summary of the method: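 EC50 defined as the drug concentration giving a CT increase of 1 above projected baseline, from real-time RT-PCR of replicon RNA using genotype-specific primers and probes. Cells were seeded in 5% FBS, dosed after 24 h and incubated 3 days before lysis.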

HCV replicon 2B = assay: Cell-based HCV Replicon Assay A, replicon 2B
Summary of the method: as §1

[1] = Hepatitis C virus, read-out: 1A Y93H IC50 (nM), replicon 1AY93H
[2] = Hepatitis C virus, read-out: 1A Q30D IC50 (nM), replicon 1AQ30D
[3] = Hepatitis C virus, read-out: 2B IC50 (nM), replicon 2B
[4] = read-out: 1A Y93H IC50, replicon 1AY93H
[5] = read-out: 1A Q30D IC50, replicon 1AQ30D

Compound	IC50 (HCV replicon 1A; Hepatitis C virus) [pM]	IC50 (HCV replicon 1AY93H; [1]) [nM]	IC50 (HCV replicon 1AQ30D; [2]) [nM]	IC50 (HCV replicon 1B; Hepatitis C virus) [pM]	IC50 (HCV replicon 2B; [3]) [nM]	IC50 (HCV replicon 2B; read-out: 2B IC50, replicon 2B) [nM]	IC50 (HCV replicon 1AY93H; [4]) [nM]	IC50 (HCV replicon 1A) [pM]	IC50 (HCV replicon 1AQ30D; [5]) [nM]	IC50 (HCV replicon 1B) [pM]
COC(=O)N[C@H](C(=O)N1CCC[C@H]1c1ncc(-c2cc(F)c3c(c2)OC(c2cnc(-c4ccccn4)s2)n2c-3cc3cc(-c4cnc([C@@H]5CCCN5C(=O)[C@@H](NC(=O)OC)C(C)C)[nH]4)ccc32)[nH]1)C(C)C (mixture of isomers) [Compound 407]	2.7	0.143	0.482	4	0.192					
COC(=O)N[C@H](C(=O)N1CCC[C@H]1c1ncc(-c2cc(F)c3c(c2)OC(c2cnc(C)s2)n2c-3cc3cc(-c4cnc([C@@H]5CCCN5C(=O)[C@@H](NC(=O)OC)C(C)C)[nH]4)ccc32)[nH]1)C(C)C (mixture of isomers) [Compound 416]	2.2	0.085	1.77	3	0.119					
COC(=O)N[C@H](C(=O)N1CCC[C@H]1c1ncc(-c2cc(F)c3c(c2)OC(c2cnc(C(C)(C)C)s2)n2c-3cc3cc(-c4cnc([C@@H]5CCCN5C(=O)[C@@H](NC(=O)OC)C(C)C)[nH]4)ccc32)[nH]1)C(C)C (mixture of isomers) [Compound 418]	2.3	0.0083	0.255	3	0.095					
COC(=O)N[C@H](C(=O)N1CCC[C@H]1c1ncc(-c2cc(F)c3c(c2)OC(c2cnc(-c4cnccn4)s2)n2c-3cc3cc(-c4cnc([C@@H]5CCCN5C(=O)[C@@H](NC(=O)OC)C(C)C)[nH]4)ccc32)[nH]1)C(C)C (mixture of isomers) [Compound 423]	5.3	0.0526	0.444	7	0.041					
COC(=O)N[C@H](C(=O)N1CCC[C@H]1c1ncc(-c2cc(F)c3c(c2)OC(c2cnc(C4CC4C)s2)n2c-3cc3cc(-c4cnc([C@@H]5CCCN5C(=O)[C@@H](NC(=O)OC)C(C)C)[nH]4)ccc32)[nH]1)C(C)C (mixture of isomers) [Compound 491]	2.9	0.01	0.3	2.6	0.013					
CCC(CC)c1ncc(C2Oc3cc(-c4cnc([C@@H]5CCCN5C(=O)[C@@H](NC(=O)OC)C(C)C)[nH]4)cc(F)c3-c3cc4cc(-c5cnc([C@@H]6CCCN6C(=O)[C@@H](NC(=O)OC)C(C)C)[nH]5)ccc4n32)s1 (mixture of isomers) [Compound 524]	3	0.008	0.183	2	0.105					
COC(=O)N[C@H](C(=O)N1CCC[C@H]1c1ncc(-c2cc(F)c3c(c2)OC(c2cncs2)n2c-3cc3cc(-c4cnc([C@@H]5CCCN5C(=O)[C@@H](NC(=O)OC)C(C)C)[nH]4)ccc32)[nH]1)C(C)C (single isomer, unassigned) [Compound 2]	3.5	6.95	38.3	30		2.31				
COC(=O)N[C@H](C(=O)N1CCC[C@H]1c1ncc(-c2cc(F)c3c(c2)OC(c2cnns2)n2c-3cc3cc(-c4cnc([C@@H]5CCCN5C(=O)[C@@H](NC(=O)OC)C(C)C)[nH]4)ccc32)[nH]1)C(C)C (single isomer, unassigned) [Compound 3]	1.5		1.05	2		0.14	0.048			
COC(=O)N[C@H](C(=O)N1CCC[C@H]1c1ncc(-c2cc(F)c3c(c2)OC(c2cnc(C4CC4)s2)n2c-3cc3cc(-c4cnc([C@@H]5CCCN5C(=O)[C@@H](NC(=O)OC)C(C)C)[nH]4)ccc32)[nH]1)C(C)C (single isomer, unassigned) [Compound 10]			0.097	2		0.011	0.0035	1.4		
COC(=O)N[C@H](C(=O)N1CCC[C@H]1c1ncc(-c2cc(F)c3c(c2)OC(c2cnc(OC)s2)n2c-3cc3cc(-c4cnc([C@@H]5CCCN5C(=O)[C@@H](NC(=O)OC)C(C)C)[nH]4)ccc32)[nH]1)C(C)C (single isomer, unassigned) [Compound 14]			0.115	2		0.015	0.0034	1.4		
COC(=O)N[C@H](C(=O)N1CCC[C@H]1c1ncc(-c2cc(F)c3c(c2)OC(c2cnc(C(F)F)s2)n2c-3cc3cc(-c4cnc([C@@H]5CCCN5C(=O)[C@@H](NC(=O)OC)C(C)C)[nH]4)ccc32)[nH]1)C(C)C (single isomer, unassigned) [Compound 20]	1.5		0.01	1		0.008	0.0083			
COC(=O)N[C@H](C(=O)N1CCC[C@H]1c1ncc(-c2cc(F)c3c(c2)OC(c2cnc(C4CCCC4)s2)n2c-3cc3cc(-c4cnc([C@@H]5CCCN5C(=O)[C@@H](NC(=O)OC)C(C)C)[nH]4)ccc32)[nH]1)C(C)C (single isomer, unassigned) [Compound 25]	2.5		0.07	1		0.014	0.0025			
COC(=O)NC(C(=O)N1[C@@H]2C[C@@H]2C[C@H]1c1ncc(-c2ccc3c(c2)cc2n3C(c3cnc(C4CC4)s3)Oc3cc(-c4cnc([C@@H]5CCCN5C(=O)[C@@H](NC(=O)OC)C(C)C)[nH]4)cc(F)c3-2)[nH]1)C(C)(C)F (single isomer, unassigned) [Compound 27]	1.6			2		0.009	0.0037		0.02	
COC(=O)N[C@H](C(=O)N1CCC[C@H]1c1ncc(-c2cc(F)c3c(c2)OC(c2cnc(C(C)C)s2)n2c-3cc3cc(-c4cnc([C@@H]5CCCN5C(=O)[C@@H](NC(=O)OC)C(C)C)[nH]4)ccc32)[nH]1)C(C)C (single isomer, unassigned) [Compound 86]		0.0063	0.187	2		0.028				
CCCc1ncc(C2Oc3cc(-c4cnc([C@@H]5CCCN5C(=O)[C@@H](NC(=O)OC)C(C)C)[nH]4)cc(F)c3-c3cc4cc(-c5cnc([C@@H]6C[C@H]7C[C@H]7N6C(=O)C(NC(=O)OC)C6CCOC(C)(C)C6)[nH]5)ccc4n32)s1 (single isomer, unassigned) [Compound 105]							0.0029	2.2	0.017	4
COC(=O)NC(C(=O)N1CCC[C@H]1c1ncc(-c2ccc3c(c2)cc2n3C(c3cnc(C4CCC4)s3)Oc3cc(-c4cnc([C@@H]5CCCN5C(=O)[C@@H](NC(=O)OC)C(C)C)[nH]4)cc(C)c3-2)[nH]1)C1C[C@@H](C)O[C@H](C)C1 (single isomer, unassigned) [Compound 220]	4	0.01	0.046	5						
COC(=O)NC(C(=O)N1CCC[C@H]1c1ncc(-c2ccc3c(c2)cc2n3C(c3cnc(C4CC4)s3)Oc3cc(-c4cnc([C@@H]5CCCN5C(=O)[C@@H](NC(=O)OC)C(C)C)[nH]4)cc(F)c3-2)[nH]1)C1C[C@@H](C)O[C@H](C)C1 (single isomer, unassigned) [Compound 305]							0.0031	3	0.015	4
COC(=O)N[C@H](C(=O)N1CCC[C@H]1c1ncc(-c2cc(F)c3c(c2)OC(c2csc(C4CC4)n2)n2c-3cc3cc(-c4cnc([C@@H]5CCCN5C(=O)[C@@H](NC(=O)OC)C(C)C)[nH]4)ccc32)[nH]1)C(C)C (single isomer, unassigned) [Compound 433]			1.6			0.3	0.06			1
